Laboratory results from patent US4595689A, “4-(8-bromodibenz[b,f]oxepin-10-yl)-1,2,3,6-tetrahydro-1-methylpyridine and 4-(2-bromodibenzo[a,d]cyclophetatriene-11-yl)-1,2,3,6-tetrahydro-1-methy lpyridine for dermal inflammation” (Hoffmann-LaRoche Inc., priority 1984, dated 1986).

Test system: cantharidin-induced inflammation of rat ear
Experiment: Cantharidin induced inflammation in the rat (topical activity, ear skin punch weight)
Format: in vivo, rat (Charles River CD, 21-day-old male)
Conditions: topical dose 100 μg, with 400 μg cantharidin in 0.1 ml vehicle on rat ears; 72 hours
Description: CANTHARIDIN INDUCED INFLAMMATION IN THE RAT
A solvent vehicle was prepared which was used to apply cantharidin or cantharidin and test compound to rats. The solvent vehicle was a solution of 1 part ethanol, 1.5 parts collodion, 2 parts acetone and 3 parts diethylether. When it was desired to apply cantharidin to rats, cantharidin was added to the solvent vehicle in such an amount that there were 400 μg of cantharidin in 0.1 ml of solvent vehicle. When it was desired to apply cantharidin and test compound to rats, cantharidin and test compound were added to the solvent vehicle in such amounts that there were both 400 μg of cantharidin and 100 μg of test compound in 0.1 ml of solvent vehicle. Cantharidin or cantharidin plus the test compound at a dose of 100 μg were applied topically to the outer surface of the ears of Charles River CD 21-day-old male rats in a volume of 0.1 ml of solvent vehicle described above. Separate groups of rats were treated with solvent vehicle alone, cantharidin alone, and cantharidin plus test compound. Autopsy was carried out 72 hours after cantharidin administration. Uniform punches were obtained through the site of application and weighed. Weight changes reflect effects on both the fluid and tissue components of the inflammatory process. […]

Row | Structure (SMILES) | % Inhibition of Inflammation
1 | CN1CC=C(C2=Cc3ccccc3Oc3ccc(Br)cc32)CC1 [4-(8-bromodibenz[b,f]oxepin-10-yl)-1,2,3,6-tetrahydro-1-methylpyridine] | 36%
2 | CN1CC=C(C2=Cc3ccccc3Cc3ccc(Br)cc32)CC1 [4-(2-bromodibenzo[a,d]cycloheptatriene-11-yl)-1,2,3,6-tetrahydro-1-methylpyridine] | 37%
